In patent US20080153858A1, “ANTITUMORIGENIC DRUG COMBINATION” (ABBOTT LABORATORIES, priority 2006, published 2008):
Marks after values point to notes of the source that are not given here.

Experiments:
[1] = tested on: Calu-6 NSCLC xenograft; assay: Calu-6 flank xenograft model, tumor growth delay; assay type: in vivo, nu/nu mice
Method: Female nu/nu mice (Charles River Labs.) were injected subcutaneously with 0.25 mL of 5×10^6 Calu-6 cells (1:1 with matrigel) on study day 0. The human Calu-6 cells were obtained from a tumor homogenate from previously inoculated donor mice. The cellular implantation site was the right thigh, and all mice were ear tagged. On day 10, tumors were size matched to approximately 170 mm^3 and were placed into the therapy groups outlined in the study design below. The tumors were measured with calipers 2-3 times per week after tumors were palpable. Tumor volume were calculated according to the formula V=L×W^2/2 (V: volume, mm^3; L: length, mm. W: width, mm). The mice were humanely euthanized when the tumor volumes reached a predetermined size. The study design was as follows:
ABT-751 was formulated in 1% HCl, 4% ethanol, and 95% D5W while pemetrexed was formulated in normal saline.
Study group treatments are defined in Table 1.

[2] = tested on: thymidine kinase minus human colon carcinoma xenograft (GC3 TK-); settings: Schultz, 1999; cited from earlier work
[3] = tested on: thymidine kinase minus human colon carcinoma xenograft (GC3 TK-); assay: GC3 TK- flank xenograft model, tumor growth delay; assay type: in vivo, nu/nu mice
Method: nu/nu female mice (Charles Rivers Labs) were injected subcutaneously with 0.2 mL of 5×10^6 GC3TK-100c3 cells (1:1 matrigel) on study day 0. […] The cellular implantation site was the right flank, and all mice were ear tagged. Tumors were size matched to 205 mm^3, and animals were placed into the therapy groups shown in the study design below (Table 3). The tumors were measured with calipers 2 times per week after tumors were palpable. The mice were humanely euthanized when the tumor volumes reached a predetermined size. The study design was as follows: [table]

Compound: Nc1nc2[nH]cc(CCc3ccc(C(=O)N[C@@H](CCC(=O)O)C(=O)O)cc3)c2c(=O)[nH]1 [pemetrexed]
- Mean % TGD (tumor growth delay) increase compared to vehicle in time to 1.5 cc tumor ([1]; Group 2: pemetrexed 150 mg/kg i.p. Days 10-14 and 20-24, plus ABT-751 vehicle): 11.1** %
- Mean % TGD (tumor growth delay) increase compared to vehicle in time to 1.5 cc tumor ([1]; Group 4: pemetrexed 150 mg/kg i.p. Days 15-19 and 25-29, plus ABT-751 vehicle): 5.6* %
- sensitivity in the thymidine kinase-deficient GC3 model [2]: quite sensitive
- Median % TGD (tumor growth delay) increase compared to vehicle in time to 0.75 cc tumor ([3]; Group 2: pemetrexed 150 mg/kg i.p. Days 38-42, plus ABT-751 vehicle): 14.8%
- Median % TGD (tumor growth delay) increase compared to vehicle in time to 0.75 cc tumor ([3]; Group 3: pemetrexed 150 mg/kg i.p. Days 43-47, plus ABT-751 vehicle): 30.7*^b %

Compound: COc1ccc(S(=O)(=O)Nc2cccnc2Nc2ccc(O)cc2)cc1 [ABT-751, N-(2-((4-Hydroxyphenyl)amino)pyridin-3-yl)-4-methoxybenzenesulfonamide]
- Mean % TGD (tumor growth delay) increase compared to vehicle in time to 1.5 cc tumor ([1]; Group 1: ABT-751 100 mg/kg p.o. Days 10-14 and 20-24, plus pemetrexed vehicle): 18.0***^b %
- Mean % TGD (tumor growth delay) increase compared to vehicle in time to 1.5 cc tumor ([1]; Group 6: ABT-751 100 mg/kg p.o. Days 15-19 and 25-29, plus pemetrexed vehicle): 18.0*** %
- Median % TGD (tumor growth delay) increase compared to vehicle in time to 0.75 cc tumor ([3]; Group 1: ABT-751 100 mg/kg p.o. Days 38-42 and 48-52, plus pemetrexed vehicle): 0.0%
